14 compounds from publication PMC9952374, “De Novo Design of Imidazopyridine-Tethered Pyrazolines That Target Phosphorylation of STAT3 in Human Breast Cancer Cells” (Bioengineering, 2023) can be followed below.

The test system of series [1] is BT-474 cells. Kind of series: Alamar Blue cell viability assay, BT-474. The conditions noted are these: BT-474 cell viability, Alamar Blue. It counts as cell-based, human. The text has this:
(§1) The goal herein was to assess the ability of imidazopyridine-tethered pyrazolines to inhibit cell viability in mammary carcinoma cells (using the Alamar Blue assay), since pyridine-fused pyrazoles were previously shown to inhibit cell viability in various breast cancer cells. […] The low chemical stability of thio-urea-based compounds may account for the inactivity of most thiourea-conjugated pyrazolines (excluding 4g) against TNBC cells.
(§2) MCF-7 cells were procured from Procell Life Science and Technology Co. LTD, Wuhan, China. Human breast cancer T47D, BT474, and SK-BR-3 cells were obtained from American Type Culture Collection (Washington, DC, NW, USA). Cells (2000) were cultured in MEM or Leibovitz’s L-15 medium enriched with 2% FBS and maintained in a humidified atmosphere of 5% CO2 at 37 °C. A stock solution of DMSO-dissolved compounds was prepared, and this solution was diluted with culture medium as required. MCF-7 Cells (4 × 10^3) were cultured in 96-well plates for 12 h and then treated for 72 h with compounds at concentrations of […]. Using Alamar Blue, the compounds were evaluated for their inhibitory effects
In general terms: Alamar Blue is a resazurin reagent that responds to reducing activity.

Series [2] has as its system SK-BR-3 cells. The series can be described thus: Alamar Blue cell viability assay, SK-BR-3. It counts as cell-based, human. The conditions noted are these: SK-BR-3 cell viability.
Description: as §1, §2

Series [3] deals with T47D cells. Kind of series: Alamar Blue cell viability assay, T47D. It counts as cell-based, human. Conditions: T47D cell viability, Alamar Blue.
Description: as §1, §2

The test system of series [4] is MCF-7 cells. Kind of series: Alamar Blue cell viability assay, MCF-7. It counts as cell-based, human. The conditions noted are these: MCF-7 cell viability.
Description: as §1, §2
Figure 2 Inhibitory effect of compounds 3f (A), 3e (B), 4g (C), and 3g (D) on the viability of MCF-7 cells. MCF-7 cells were treated with various concentrations of 2-pyrazolines for 72 h and the viability of cells was analyzed by Alamar Blue assays. The results are presented as mean ± S.E.M. of triplicate determinations.

In series [5] the test system is MCF-10A cells. The series can be described thus: Alamar Blue cell viability assay, normal MCF-10A. It counts as cell-based. The conditions noted are these: normal MCF-10A cell viability.

As usually defined, the melting point is the temperature of the solid-liquid transition. As usually defined, the IC50 is the midpoint of a concentration-inhibition curve. A low value points to greater potency in that assay. `CC(=O)N1N=C(c2c(C)nc3ccc(C)cn23)CC1c1cccc([N+](=O)[O-])c1` (stereo not drawn) [Compound 2, 1-(3-(2,6-Dimethylimidazo[1,2-a]pyridin-3-yl)-5-(3-nitrophenyl)-4,5-dihydro-1H-pyrazol-1-yl)ethanone]: the melting point is 166 to 168 °C. In series [1] (Homo sapiens), this compound returned an IC50 of 97.8 ± 1.76 µM. This compound also registered an IC50 in series [2] (Homo sapiens) above 100 µM. The IC50 in series [3] (Homo sapiens) was above 100 µM. This compound had a half-maximal inhibitory concentration (IC50) in series [4] (Homo sapiens, MCF7, 72 h) above 100 µM. This compound came in with an IC50 in series [5] (Homo sapiens) above 100 µM.

On to `Cc1ccc2nc(C)c(C3=NN(C(=O)CN4CCC(=O)CC4)C(c4cccc([N+](=O)[O-])c4)C3)n2c1` (stereo not drawn) [Compound 3a, 1-(2-(3-(2,6-Dimethylimidazo[1,2-a]pyridin-3-yl)-5-(3-nitrophenyl)-4,5-dihydro-1H-pyrazol-1-yl)-2-oxoethyl)piperidin-4-one], for which the melting point was 170 to 172 °C. This compound gave an IC50 in series [1] (Homo sapiens) of 4.11 ± 0.41 µM. This compound registered an IC50 in series [2] (Homo sapiens) above 100 µM. Inhibition in series [3] (Homo sapiens) was half-maximal at 23.3 ± 1.28 µM (IC50). In addition, the IC50 in series [4] (Homo sapiens, MCF7, 72 h) came out at 22.8 ± 1.36 µM. Moreover, the IC50 in series [5] (Homo sapiens) was above 100 µM.

Take `Cc1ccc2nc(C)c(C3=NN(C(=O)CN4CCN(C(=O)OC(C)(C)C)CC4)C(c4cccc([N+](=O)[O-])c4)C3)n2c1` (stereo not drawn) [Compound 3b, Tert-butyl-4-(2-(3-(2,6-dimethylimidazo[1,2-a]pyridin-3-yl)-5-(3-nitrophenyl)-4,5-dihydro-1H-pyrazol-1-yl)-2-oxoethyl)piperazine-1-carboxylate]: the melting point was in the range of 166 to 168 °C. In series [1] (Homo sapiens), this compound had an IC50 of 21.3 ± 1.32 µM. The same compound came in with an IC50 in series [2] (Homo sapiens) of 28.3 ± 1.34 µM. The IC50 in series [3] (Homo sapiens) was determined as 15.2 ± 1.13 µM. In series [4] (Homo sapiens, MCF7, 72 h), this compound came in with an IC50 of 22.3 ± 1.35 µM. In series [5] (Homo sapiens), this compound came in with an IC50 above 100 µM.

In turn, `Cc1ccc2nc(C)c(C3=NN(C(=O)CN4CCNCC4)C(c4cccc([N+](=O)[O-])c4)C3)n2c1` (stereo not drawn) [Compound 3c, 1-(3-(2,6-Dimethylimidazo[1,2-a]pyridin-3-yl)-5-(3-nitrophenyl)-4,5-dihydro-1H-pyrazol-1-yl)-2-(piperazin-1-yl)ethanone] returned a melting point of 176 to 178 °C. The same compound registered an IC50 in series [1] (Homo sapiens) of 26.8 ± 1.37 µM. In addition, in series [2] (Homo sapiens), the IC50 worked out at 95.2 ± 1.79 µM. This compound also gave an IC50 in series [3] (Homo sapiens) of 40 ± 1.49 µM. Further, in series [4] (Homo sapiens, MCF7, 72 h), the IC50 was 29.3 ± 1.47 µM. Moreover, the IC50 in series [5] (Homo sapiens) is above 100 µM.

Take `CC(=O)N1CCN(CC(=O)N2N=C(c3c(C)nc4ccc(C)cn34)CC2c2cccc([N+](=O)[O-])c2)CC1` (stereo not drawn) [Compound 3d, 2-(4-Acetylpiperazin-1-yl)-1-(3-(2,6-dimethylimidazo[1,2-a]pyridin-3-yl)-5-(3-nitrophenyl)-4,5-dihydro-1H-pyrazol-1-yl)ethanone]: the melting point was 208 to 210 °C. Besides, in series [1] (Homo sapiens), the IC50 turned out to be 8.04 ± 0.47 µM. In addition, 32.1 ± 1.46 µM corresponded to half-maximal inhibition in series [2] (Homo sapiens) (IC50). Besides, the IC50 in series [3] (Homo sapiens) is above 100 µM. The IC50 in series [4] (Homo sapiens, MCF7, 72 h) was determined as 21 ± 1.32 µM. The IC50 in series [5] (Homo sapiens) was above 100 µM.

Consider `Cc1ccc2nc(C)c(C3=NN(C(=O)CN4CCN(c5ccc(Cl)cc5)CC4)C(c4cccc([N+](=O)[O-])c4)C3)n2c1` (stereo not drawn) [Compound 3e, 2-(4-(4-Chlorophenyl)piperazin-1-yl)-1-(3-(2,6-dimethylimidazo[1,2-a]pyridin-3-yl)-5-(3-nitrophenyl)-4,5-dihydro-1H-pyrazol-1-yl)ethanone], for which the melting point is 180 to 182 °C. The compound further showed an IC50 in series [1] (Homo sapiens) of 17.6 ± 0.87 µM. This compound also gave an IC50 in series [2] (Homo sapiens) of 39.1 ± 1.46 µM. Besides, in series [3] (Homo sapiens), half-maximal inhibition (IC50) required 29.9 ± 1.05 µM. This compound also gave an IC50 in series [4] (Homo sapiens, MCF7, 72 h) of 13.2 ± 1.12 µM. Besides, 38.3 ± 1.44 µM corresponded to half-maximal inhibition in series [5] (Homo sapiens) (IC50).

Compound `Cc1ccc2nc(C)c(C3=NN(C(=O)CN4CCN(c5ccc(Cl)cc5F)CC4)C(c4cccc([N+](=O)[O-])c4)C3)n2c1` (stereo not drawn) [Compound 3g, 2-(4-(4-Chloro-2-fluorophenyl)piperazin-1-yl)-1-(3-(2,6-dimethylimidazo[1,2-a]pyridin-3-yl)-5-(3-nitrophenyl)-4,5-dihydro-1H-pyrazol-1-yl)ethanone] returned a melting point of 196 to 198 °C. Also, half-maximal inhibition in series [1] (Homo sapiens) (IC50) was put at 63.2 ± 1.75 µM. Also, 100 ± 1.98 µM corresponded to half-maximal inhibition in series [2] (Homo sapiens) (IC50). For the same compound, 86.5 ± 1.95 µM corresponded to half-maximal inhibition in series [3] (Homo sapiens) (IC50). The IC50 in series [4] (Homo sapiens, MCF7, 72 h) is 19.4 ± 1.29 µM. This compound showed an IC50 in series [5] (Homo sapiens) of 8.69 ± 0.69 µM.

As for `Cc1ccc2nc(C)c(C3=NN(C(=O)CN4CCN(c5ccccc5F)CC4)C(c4cccc([N+](=O)[O-])c4)C3)n2c1` (stereo not drawn) [Compound 3i, 1-(3-(2,6-Dimethylimidazo[1,2-a]pyridin-3-yl)-5-(3-nitrophenyl)-4,5-dihydro-1H-pyrazol-1-yl)-2-(4-(2-fluorophenyl)piperazin-1-yl)ethanone], the melting point was in the range of 160 to 162 °C. Moreover, in series [1] (Homo sapiens), the IC50 was above 100 µM. The compound also had an IC50 in series [2] (Homo sapiens) above 100 µM. In series [3] (Homo sapiens), this compound showed an IC50 above 100 µM. The compound also had an IC50 in series [4] (Homo sapiens, MCF7, 72 h) of 63.7 ± 1.8 µM. Further, the IC50 in series [5] (Homo sapiens) was above 100 µM.

As to `Cc1ccc2nc(C)c(C3=NN(C(=S)Nc4ccccc4)C(c4cccc([N+](=O)[O-])c4)C3)n2c1` (stereo not drawn) [Compound 4a, 3-(2,6-Dimethylimidazo[1,2-a]pyridin-3-yl)-5-(3-nitrophenyl)-N-phenyl-4,5-dihydro-1H-pyrazoline-1-carbothioamide], the IC50 in series [1] is above 100 µM; in series [2], above 100 µM; in series [3] it was above 100 µM; in series [4] (72 h), 81.4 ± 1.91 µM; in series [5], above 100 µM.

For the compound `Cc1ccc2nc(C)c(C3=NN(C(=S)NC4CCCCC4)C(c4cccc([N+](=O)[O-])c4)C3)n2c1` (stereo not drawn) [Compound 4c, N-Cyclohexyl-3-(2,6-dimethylimidazo[1,2-a]pyridin-3-yl)-5-(3-nitrophenyl)-4,5-dihydro-1H-pyrazoline-1-carbothioamide], the IC50 in series [1] is 52.8 ± 1.54 µM; in series [2] it was above 100 µM; in series [3], above 100 µM; in series [4] (72 h) it was 46.1 ± 1.66 µM; in series [5] it was above 100 µM.

For `Cc1ccc2nc(C)c(C3=NN(C(=S)Nc4cccc(Cl)c4)C(c4cccc([N+](=O)[O-])c4)C3)n2c1` (stereo not drawn) [Compound 4e, N-(3-Chlorophenyl)-3-(2,6-dimethylimidazo[1,2-a]pyridin-3-yl)-5-(3-nitrophenyl)-4,5-dihydro-1H-pyrazoline-1-carbothioamide], the IC50 in series [1], in series [2], in series [3], in series [4] (72 h) and in series [5] was above 100 µM each time.

As to `Cc1ccc(NC(=S)N2N=C(c3c(C)nc4ccc(C)cn34)CC2c2cccc([N+](=O)[O-])c2)cc1` (stereo not drawn) [Compound 4f, 3-(2,6-Dimethylimidazo[1,2-a]pyridin-3-yl)-5-(3-nitrophenyl)-N-(p-tolyl)-4,5-dihydro-1H-pyrazoline-1-carbothioamide], the IC50 in series [1] is above 100 µM; in series [2], above 100 µM; in series [3] it was above 100 µM; in series [4] (72 h), 56.9 ± 1.39 µM; in series [5], above 100 µM.

“N-(4-Chlorophenyl)-3-(2,6-dimethylimidazo[1,2-a]pyridin-3-yl)-5-(3-nitrophenyl)-4,5-dihydro-1H-pyrazoline-1-carbothioamide [Compound 4d]”: the IC50 in series [1], in series [2], in series [3], in series [4] (72 h) and in series [5] was above 100 µM each time.

Regarding “N-Butyl-3-(2,6-dimethylimidazo[1,2-a]pyridin-3-yl)-5-(3-nitrophenyl)-4,5-dihydro-1H-pyrazoline-1-carbothioamide [Compound 4h]”, the IC50 in series [1] was above 100 µM; in series [2], above 100 µM; in series [3] it was 54.4 ± 1.68 µM; in series [4] (72 h), above 100 µM; in series [5], 90.6 ± 1.98 µM.
